According to ChEMBL document CHEMBL5291721, “A preclinical secondary pharmacology resource illuminates target-adverse drug reaction associations of marketed drugs” (Nat Commun, 2023):

What was measured:
[1] = target: Beta-1 adrenergic receptor (Homo sapiens, UniProt P08588); format: functional, cell-based
[2] = target: T1, Alpha-2A adrenergic receptor (Homo sapiens, UniProt P08913)
T1 sequence (P08913 whole entry): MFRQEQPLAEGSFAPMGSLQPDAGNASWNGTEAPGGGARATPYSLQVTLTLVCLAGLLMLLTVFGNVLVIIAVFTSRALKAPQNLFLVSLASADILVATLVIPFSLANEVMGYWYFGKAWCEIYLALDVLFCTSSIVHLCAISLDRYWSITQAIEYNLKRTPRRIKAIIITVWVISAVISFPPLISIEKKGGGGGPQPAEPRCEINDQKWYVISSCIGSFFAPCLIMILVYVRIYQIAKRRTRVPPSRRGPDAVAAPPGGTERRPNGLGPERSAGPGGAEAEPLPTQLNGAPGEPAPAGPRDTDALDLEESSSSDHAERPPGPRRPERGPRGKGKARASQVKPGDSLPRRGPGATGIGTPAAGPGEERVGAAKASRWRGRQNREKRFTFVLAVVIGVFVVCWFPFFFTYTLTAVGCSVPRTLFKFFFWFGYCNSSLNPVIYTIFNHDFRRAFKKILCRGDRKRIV

[3] = target: T2, Peroxisome proliferator-activated receptor gamma (Homo sapiens, UniProt P37231); format: functional
T2 sequence (P37231 whole entry): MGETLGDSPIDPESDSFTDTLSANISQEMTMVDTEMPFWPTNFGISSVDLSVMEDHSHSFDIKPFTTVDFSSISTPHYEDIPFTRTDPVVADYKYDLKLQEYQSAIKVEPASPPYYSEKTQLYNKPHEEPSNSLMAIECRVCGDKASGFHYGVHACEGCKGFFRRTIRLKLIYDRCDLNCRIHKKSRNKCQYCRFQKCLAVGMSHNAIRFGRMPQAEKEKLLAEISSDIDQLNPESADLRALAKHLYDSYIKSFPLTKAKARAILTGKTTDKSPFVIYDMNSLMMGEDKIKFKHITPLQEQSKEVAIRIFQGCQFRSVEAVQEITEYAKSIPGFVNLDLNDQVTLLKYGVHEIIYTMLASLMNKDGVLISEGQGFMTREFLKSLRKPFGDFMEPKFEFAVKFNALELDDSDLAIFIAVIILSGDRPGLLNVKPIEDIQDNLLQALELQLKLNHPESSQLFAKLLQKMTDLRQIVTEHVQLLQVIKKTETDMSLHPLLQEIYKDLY

[4] = target: Voltage-dependent L-type calcium channel subunit alpha-1C (Homo sapiens, UniProt Q13936); format: functional, cell-based
[5] = target: Neurotensin receptor type 1 (Homo sapiens, UniProt P30989)
[6] = target: Gamma-aminobutyric acid type B receptor subunit 1 (Homo sapiens, UniProt Q9UBS5)
[7] = target: T3, Corticotropin-releasing factor receptor 1 (Homo sapiens, UniProt P34998)
T3 sequence (P34998 whole entry): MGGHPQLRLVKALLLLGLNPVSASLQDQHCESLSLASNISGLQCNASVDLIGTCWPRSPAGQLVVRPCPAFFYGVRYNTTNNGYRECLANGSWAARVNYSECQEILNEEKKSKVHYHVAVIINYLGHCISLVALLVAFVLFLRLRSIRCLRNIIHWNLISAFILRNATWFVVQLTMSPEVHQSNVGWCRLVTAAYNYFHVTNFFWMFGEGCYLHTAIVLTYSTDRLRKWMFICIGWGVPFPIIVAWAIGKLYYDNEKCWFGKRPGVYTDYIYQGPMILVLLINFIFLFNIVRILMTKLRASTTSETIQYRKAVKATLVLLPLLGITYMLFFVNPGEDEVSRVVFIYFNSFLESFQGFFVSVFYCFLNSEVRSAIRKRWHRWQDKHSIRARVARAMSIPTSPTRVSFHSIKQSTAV

[8] = target: Voltage-dependent N-type calcium channel subunit alpha-1B (Rattus norvegicus, UniProt Q02294); format: functional
[9] = target: T4, Gastric inhibitory polypeptide receptor (Homo sapiens, UniProt P48546)
T4 sequence (P48546 whole entry): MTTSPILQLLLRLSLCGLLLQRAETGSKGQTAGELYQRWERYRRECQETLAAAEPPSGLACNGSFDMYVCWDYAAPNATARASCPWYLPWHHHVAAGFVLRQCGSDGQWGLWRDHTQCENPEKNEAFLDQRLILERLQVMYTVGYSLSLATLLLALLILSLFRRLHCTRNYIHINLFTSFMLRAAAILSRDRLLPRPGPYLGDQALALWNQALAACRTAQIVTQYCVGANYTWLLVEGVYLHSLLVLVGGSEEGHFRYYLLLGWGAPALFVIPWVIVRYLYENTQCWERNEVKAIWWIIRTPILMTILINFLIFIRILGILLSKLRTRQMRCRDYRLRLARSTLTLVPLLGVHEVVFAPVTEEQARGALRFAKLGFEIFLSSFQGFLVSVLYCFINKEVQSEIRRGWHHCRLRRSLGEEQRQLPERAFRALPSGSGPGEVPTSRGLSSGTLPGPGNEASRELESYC

Histamine H1 receptor [10] = target: T5, Histamine H1 receptor (Homo sapiens, UniProt P35367); format: functional, cell-based
Histamine H1 receptor [11] = target: T5, Histamine H1 receptor; format: functional, cell-based; remark: listed apart in the source
[12] = target: 5-hydroxytryptamine receptor 6 (Homo sapiens, UniProt P50406)
D(1B) dopamine receptor = D(1B) dopamine receptor (Homo sapiens, UniProt P21918)
D(4) dopamine receptor = target: T6, D(4) dopamine receptor (Homo sapiens, UniProt P21917)
T6 sequence (P21917 whole entry): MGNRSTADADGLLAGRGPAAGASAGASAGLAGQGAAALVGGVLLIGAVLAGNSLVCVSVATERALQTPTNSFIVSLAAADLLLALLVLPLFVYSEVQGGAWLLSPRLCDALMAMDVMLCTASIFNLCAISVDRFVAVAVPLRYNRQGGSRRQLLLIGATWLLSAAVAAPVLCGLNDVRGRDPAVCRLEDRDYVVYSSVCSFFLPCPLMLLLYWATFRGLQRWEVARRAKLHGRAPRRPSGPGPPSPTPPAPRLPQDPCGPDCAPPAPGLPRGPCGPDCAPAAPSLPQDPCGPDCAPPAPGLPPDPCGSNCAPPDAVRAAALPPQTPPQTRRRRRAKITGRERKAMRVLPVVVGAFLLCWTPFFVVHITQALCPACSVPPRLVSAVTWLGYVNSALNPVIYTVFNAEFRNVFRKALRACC

[13] = target: 5-hydroxytryptamine receptor 5A (Homo sapiens, UniProt P47898)
Further: assay procedure not described here.

Sequence of 5-hydroxytryptamine receptor 6 (P50406 whole entry): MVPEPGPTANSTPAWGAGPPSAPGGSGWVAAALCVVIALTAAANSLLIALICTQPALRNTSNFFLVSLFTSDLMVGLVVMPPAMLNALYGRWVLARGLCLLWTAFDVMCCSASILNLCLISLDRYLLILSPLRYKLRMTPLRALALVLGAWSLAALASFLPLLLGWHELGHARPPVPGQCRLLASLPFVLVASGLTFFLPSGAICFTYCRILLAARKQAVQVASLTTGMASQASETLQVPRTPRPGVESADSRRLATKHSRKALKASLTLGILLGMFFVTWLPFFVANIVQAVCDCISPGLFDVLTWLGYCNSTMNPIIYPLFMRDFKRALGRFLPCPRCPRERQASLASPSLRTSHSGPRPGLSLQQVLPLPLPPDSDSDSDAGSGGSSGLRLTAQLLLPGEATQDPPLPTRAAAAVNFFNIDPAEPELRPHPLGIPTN
T5 sequence (P35367 whole entry): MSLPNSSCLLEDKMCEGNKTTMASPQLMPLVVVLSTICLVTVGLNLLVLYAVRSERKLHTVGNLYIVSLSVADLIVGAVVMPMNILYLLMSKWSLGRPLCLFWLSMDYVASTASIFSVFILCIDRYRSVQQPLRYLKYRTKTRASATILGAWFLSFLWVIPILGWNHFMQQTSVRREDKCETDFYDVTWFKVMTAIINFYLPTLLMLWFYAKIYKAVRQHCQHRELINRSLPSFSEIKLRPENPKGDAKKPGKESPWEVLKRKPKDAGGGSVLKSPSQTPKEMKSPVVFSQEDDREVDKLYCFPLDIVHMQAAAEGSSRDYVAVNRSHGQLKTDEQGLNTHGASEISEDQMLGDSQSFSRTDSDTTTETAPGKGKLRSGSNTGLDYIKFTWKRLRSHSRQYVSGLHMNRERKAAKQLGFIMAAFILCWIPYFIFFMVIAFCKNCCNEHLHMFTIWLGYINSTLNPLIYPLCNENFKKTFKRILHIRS
Sequence of Beta-1 adrenergic receptor (P08588 whole entry): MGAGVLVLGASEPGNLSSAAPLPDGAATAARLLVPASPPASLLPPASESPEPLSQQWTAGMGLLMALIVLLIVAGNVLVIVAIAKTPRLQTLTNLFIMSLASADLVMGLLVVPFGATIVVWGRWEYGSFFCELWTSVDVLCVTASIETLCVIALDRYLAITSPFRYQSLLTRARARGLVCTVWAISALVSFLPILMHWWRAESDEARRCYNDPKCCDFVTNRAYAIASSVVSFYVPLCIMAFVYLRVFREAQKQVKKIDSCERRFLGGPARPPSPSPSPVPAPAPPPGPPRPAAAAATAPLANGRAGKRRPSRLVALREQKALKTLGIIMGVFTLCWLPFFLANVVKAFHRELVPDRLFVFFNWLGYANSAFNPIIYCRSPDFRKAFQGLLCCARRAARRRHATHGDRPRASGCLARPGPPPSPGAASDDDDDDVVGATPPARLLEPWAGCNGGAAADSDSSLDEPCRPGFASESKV
Sequence of 5-hydroxytryptamine receptor 5A (P47898 whole entry): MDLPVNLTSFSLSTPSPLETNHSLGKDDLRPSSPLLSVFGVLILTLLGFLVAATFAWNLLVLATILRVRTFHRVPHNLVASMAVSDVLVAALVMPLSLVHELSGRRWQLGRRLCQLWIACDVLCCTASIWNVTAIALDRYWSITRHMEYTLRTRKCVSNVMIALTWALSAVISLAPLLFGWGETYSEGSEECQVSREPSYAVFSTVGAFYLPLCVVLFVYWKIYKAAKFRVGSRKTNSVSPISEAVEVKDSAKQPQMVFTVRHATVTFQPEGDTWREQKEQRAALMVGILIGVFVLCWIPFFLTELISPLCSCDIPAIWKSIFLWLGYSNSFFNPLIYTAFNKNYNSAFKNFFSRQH
Sequence of Neurotensin receptor type 1 (P30989 whole entry): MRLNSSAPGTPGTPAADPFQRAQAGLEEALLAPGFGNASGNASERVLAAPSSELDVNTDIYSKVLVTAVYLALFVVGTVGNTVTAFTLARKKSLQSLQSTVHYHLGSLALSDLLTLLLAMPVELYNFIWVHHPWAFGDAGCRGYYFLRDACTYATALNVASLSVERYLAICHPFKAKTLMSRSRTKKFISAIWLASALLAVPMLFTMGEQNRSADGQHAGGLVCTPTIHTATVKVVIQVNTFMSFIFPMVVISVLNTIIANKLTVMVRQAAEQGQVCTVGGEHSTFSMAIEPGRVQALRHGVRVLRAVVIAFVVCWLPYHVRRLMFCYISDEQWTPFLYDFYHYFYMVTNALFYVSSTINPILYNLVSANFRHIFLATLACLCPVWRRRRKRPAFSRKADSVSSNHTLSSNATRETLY
Sequence of Voltage-dependent N-type calcium channel subunit alpha-1B (Q02294 whole entry): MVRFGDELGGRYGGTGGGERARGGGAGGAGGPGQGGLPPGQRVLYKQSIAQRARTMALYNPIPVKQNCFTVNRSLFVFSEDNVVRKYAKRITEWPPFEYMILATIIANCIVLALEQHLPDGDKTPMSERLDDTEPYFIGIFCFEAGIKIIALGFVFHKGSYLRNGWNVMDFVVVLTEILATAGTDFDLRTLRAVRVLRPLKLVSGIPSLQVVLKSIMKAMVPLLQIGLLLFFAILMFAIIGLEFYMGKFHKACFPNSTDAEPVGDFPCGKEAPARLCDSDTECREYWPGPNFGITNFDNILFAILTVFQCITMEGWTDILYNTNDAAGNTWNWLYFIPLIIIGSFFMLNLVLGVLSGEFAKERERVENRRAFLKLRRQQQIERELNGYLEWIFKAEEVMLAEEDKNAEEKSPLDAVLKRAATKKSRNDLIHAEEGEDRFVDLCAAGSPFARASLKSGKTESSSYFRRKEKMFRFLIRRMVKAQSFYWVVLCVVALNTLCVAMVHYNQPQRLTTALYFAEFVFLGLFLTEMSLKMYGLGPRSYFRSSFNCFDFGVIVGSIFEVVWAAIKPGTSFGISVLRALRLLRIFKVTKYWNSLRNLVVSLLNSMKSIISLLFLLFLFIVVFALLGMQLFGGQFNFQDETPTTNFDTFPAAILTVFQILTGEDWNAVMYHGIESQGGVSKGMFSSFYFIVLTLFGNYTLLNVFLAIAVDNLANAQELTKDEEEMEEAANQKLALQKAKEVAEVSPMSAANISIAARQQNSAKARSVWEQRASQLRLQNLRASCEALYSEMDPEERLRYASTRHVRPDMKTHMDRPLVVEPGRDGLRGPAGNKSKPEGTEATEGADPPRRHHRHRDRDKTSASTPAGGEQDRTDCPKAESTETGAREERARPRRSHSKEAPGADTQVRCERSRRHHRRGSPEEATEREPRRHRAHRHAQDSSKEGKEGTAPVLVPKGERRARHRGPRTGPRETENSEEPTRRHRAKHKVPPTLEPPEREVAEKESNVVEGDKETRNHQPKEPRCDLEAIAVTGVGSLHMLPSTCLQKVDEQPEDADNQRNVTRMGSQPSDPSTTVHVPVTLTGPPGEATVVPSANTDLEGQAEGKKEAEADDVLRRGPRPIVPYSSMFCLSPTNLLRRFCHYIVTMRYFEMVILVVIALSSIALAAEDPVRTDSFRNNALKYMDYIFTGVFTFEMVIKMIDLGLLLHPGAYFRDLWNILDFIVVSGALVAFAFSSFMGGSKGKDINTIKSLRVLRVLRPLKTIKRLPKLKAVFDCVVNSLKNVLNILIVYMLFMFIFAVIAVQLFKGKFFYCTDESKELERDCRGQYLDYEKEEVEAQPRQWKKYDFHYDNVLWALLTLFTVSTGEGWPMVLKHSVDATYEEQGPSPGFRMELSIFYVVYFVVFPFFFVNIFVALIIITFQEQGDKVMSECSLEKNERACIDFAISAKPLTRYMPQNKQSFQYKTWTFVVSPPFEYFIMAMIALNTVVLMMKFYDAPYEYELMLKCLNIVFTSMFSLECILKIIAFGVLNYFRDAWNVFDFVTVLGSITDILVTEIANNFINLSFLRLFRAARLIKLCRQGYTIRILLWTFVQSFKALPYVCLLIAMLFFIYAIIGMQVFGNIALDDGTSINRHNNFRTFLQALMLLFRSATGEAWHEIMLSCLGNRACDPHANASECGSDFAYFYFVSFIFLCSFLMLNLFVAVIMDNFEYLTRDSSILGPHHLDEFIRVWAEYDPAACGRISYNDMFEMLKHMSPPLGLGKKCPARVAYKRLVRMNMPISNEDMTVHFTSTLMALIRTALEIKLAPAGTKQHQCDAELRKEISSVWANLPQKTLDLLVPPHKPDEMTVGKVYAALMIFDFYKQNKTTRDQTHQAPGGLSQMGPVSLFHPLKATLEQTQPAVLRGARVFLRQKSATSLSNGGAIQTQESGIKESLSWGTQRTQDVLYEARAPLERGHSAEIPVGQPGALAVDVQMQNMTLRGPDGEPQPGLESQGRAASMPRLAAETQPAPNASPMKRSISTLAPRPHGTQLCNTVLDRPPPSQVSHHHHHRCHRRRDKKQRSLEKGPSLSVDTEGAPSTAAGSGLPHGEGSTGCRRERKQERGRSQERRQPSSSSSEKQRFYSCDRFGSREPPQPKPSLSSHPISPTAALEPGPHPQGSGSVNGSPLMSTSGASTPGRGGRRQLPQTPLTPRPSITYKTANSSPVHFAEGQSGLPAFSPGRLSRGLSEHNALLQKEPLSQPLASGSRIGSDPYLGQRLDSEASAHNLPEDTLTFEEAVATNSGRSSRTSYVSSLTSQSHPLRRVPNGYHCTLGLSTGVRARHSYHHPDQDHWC
Sequence of D(1B) dopamine receptor (P21918 whole entry): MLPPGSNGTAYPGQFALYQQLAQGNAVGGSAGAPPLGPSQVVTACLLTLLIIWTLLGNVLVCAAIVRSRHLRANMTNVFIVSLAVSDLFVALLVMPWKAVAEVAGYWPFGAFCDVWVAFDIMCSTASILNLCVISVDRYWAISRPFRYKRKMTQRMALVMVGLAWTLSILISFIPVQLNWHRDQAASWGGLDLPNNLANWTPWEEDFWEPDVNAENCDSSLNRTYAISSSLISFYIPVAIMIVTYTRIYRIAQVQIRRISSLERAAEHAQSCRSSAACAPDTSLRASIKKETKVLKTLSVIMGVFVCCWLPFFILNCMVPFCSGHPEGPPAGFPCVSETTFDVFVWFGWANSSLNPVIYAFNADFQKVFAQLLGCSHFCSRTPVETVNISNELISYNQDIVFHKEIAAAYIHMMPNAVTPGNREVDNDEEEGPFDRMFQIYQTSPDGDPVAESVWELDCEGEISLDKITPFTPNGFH

SMILES | AC50 [2] [µM] | AC50 [5] [µM] | AC50 [7] [µM] | AC50 [8] [µM] | AC50 [9] [µM] | other results
CC(C)N(CCCCOCC(=O)O)c1cnc(-c2ccccc2)c(-c2ccccc2)n1 |  |  |  |  |  | AC50 [1]: > 30 µM
Cc1cc(=O)n(-c2ccccc2)n1C [ANTIPYRINE] | > 10 |  |  |  |  | 
NS(=O)(=O)c1cc2c(cc1Cl)N=C(CSCc1ccccc1)NS2(=O)=O [BENZTHIAZIDE] | 2.48 |  |  |  |  | 
O=C(CCCN1CCC(O)(c2ccc(Br)cc2)CC1)c1ccc(F)cc1 [BROMPERIDOL] |  |  |  |  |  | AC50 [1]: > 30 µM
CO/N=C(\C(=O)N[C@@H]1C(=O)N2C(C(=O)O)=CCS[C@H]12)c1csc(N)n1 [CEFTIZOXIME] |  |  |  |  |  | AC50 [3]: > 30 µM
CO/N=C(\C(=O)N[C@@H]1C(=O)N2C(C(=O)O)=C(CSc3nc(=O)c(=O)[nH]n3C)CS[C@H]12)c1csc(N)n1 [CEFTRIAXONE] |  |  |  |  |  | AC50 [4]: > 50 µM; AC50 [3]: > 30 µM
COc1cc(N)c(Cl)cc1C(=O)NC1CCN(CCCOc2ccc(F)cc2)CC1OC (stereo not drawn) [CISAPRIDE] |  | > 30 | > 30 | > 10 | > 30 | AC50 [4]: > 50 µM; AC50 [6]: > 10 µM
CC(CN(C)C)C(C)(O)Cc1ccc(Cl)cc1 (stereo not drawn) [CLOBUTINOL] |  |  |  |  |  | AC50 (Histamine H1 receptor [10]): > 30 µM; AC50 (Histamine H1 receptor [11]): > 30 µM
CCOC(=O)C(C)(C)Oc1ccc(Cl)cc1 [CLOFIBRATE] |  | > 30 | > 30 | > 10 | > 30 | AC50 [3]: > 30 µM
CCCCOc1ccc(C(=O)CCN2CCCCC2)cc1 [DYCLONINE] | > 10 | > 30 | > 30 | > 10 | > 30 | AC50 [12]: > 10 µM; AC50 (Histamine H1 receptor [10]): > 30 µM; AC50 [6]: > 10 µM; AC50 (Histamine H1 receptor [11]): > 30 µM; AC50 (D(1B) dopamine receptor): > 10 µM; AC50 (D(4) dopamine receptor): 4.11 µM; AC50 [13]: > 10 µM
CC(C)NC[C@H](O)COc1ccc(CC(N)=O)cc1 [ESATENOLOL] | > 10 | > 30 | > 30 | > 10 | > 30 | AC50 [12]: > 10 µM; AC50 (D(4) dopamine receptor): > 10 µM
NNC(=O)c1ccncc1 [ISONIAZID] | > 10 | > 30 | > 30 | > 10 | > 30 | AC50 [12]: > 10 µM; AC50 (D(4) dopamine receptor): > 10 µM
O=C1Nc2ccc(Cl)cc2C(c2ccccc2Cl)=NC1O (stereo not drawn) [LORAZEPAM] | > 10 | > 30 | > 30 | > 10 | > 30 | AC50 (D(4) dopamine receptor): > 10 µM
CN1CCN=C(c2ccccc2)c2cc(Cl)ccc21 [MEDAZEPAM] |  |  |  |  |  | AC50 [1]: > 30 µM
Cc1ccnc2c1NC(=O)c1cccnc1N2C1CC1 [NEVIRAPINE] | > 10 | > 30 | > 30 | > 10 | > 30 | AC50 [12]: > 10 µM; AC50 (D(1B) dopamine receptor): > 10 µM; AC50 (D(4) dopamine receptor): > 10 µM; AC50 [13]: > 10 µM
O=C(NCCO[N+](=O)[O-])c1cccnc1 [NICORANDIL] |  |  |  |  |  | AC50 (Histamine H1 receptor [10]): > 30 µM; AC50 (Histamine H1 receptor [11]): > 30 µM
O=c1[nH]c2ccccc2n1CCCN1CCN(C(c2ccccc2)c2ccccc2)CC1 [OXATOMIDE] |  |  |  |  |  | AC50 (Histamine H1 receptor [10]): > 30 µM; AC50 (Histamine H1 receptor [11]): 0.69 µM
COc1cc2[nH]c(C)c(CCN3CCN(c4ccccc4)CC3)c2cc1OC [OXYPERTINE] |  |  |  |  |  | AC50 (Histamine H1 receptor [10]): > 30 µM; AC50 (Histamine H1 receptor [11]): 0.645 µM
Fc1ccc([C@@H]2CCNC[C@H]2COc2ccc3c(c2)OCO3)cc1 [PAROXETINE] |  | > 30 | > 30 | > 10 | > 30 | AC50 [4]: > 50 µM; AC50 [6]: > 10 µM; AC50 (D(1B) dopamine receptor): > 10 µM; AC50 (D(4) dopamine receptor): > 10 µM; AC50 [13]: 5.63 µM
COc1cc(C(=O)OCc2cccc(COC(=O)c3cc(OC)c(OC)c(OC)c3)n2)cc(OC)c1OC [PIROZADIL] |  |  |  |  |  | AC50 (Histamine H1 receptor [10]): > 30 µM; AC50 (Histamine H1 receptor [11]): > 30 µM
CCC(=O)O[C@](Cc1ccccc1)(c1ccccc1)[C@H](C)CN(C)C [PROPOXYPHENE] | > 10 | > 30 | > 30 | > 10 | > 30 | AC50 (D(4) dopamine receptor): > 10 µM
CCc1nc(N)nc(N)c1-c1ccc(Cl)cc1 [PYRIMETHAMINE] | > 10 |  |  |  |  | 
O=c1c(O)c(-c2ccc(O)c(O)c2)oc2cc(O)cc(O)c12 [QUERCETIN] | > 10 | > 30 | > 30 | > 10 | > 30 | 
CCN1CCCC1CNC(=O)c1cc(S(=O)(=O)CC)ccc1OC (stereo not drawn) [SULTOPRIDE] |  |  |  |  |  | AC50 (Histamine H1 receptor [10]): > 30 µM; AC50 (Histamine H1 receptor [11]): > 30 µM
C=CCN1CCc2nc(N)sc2CC1 [TALIPEXOLE] | 0.98 |  |  |  |  | AC50 [1]: > 30 µM
CCOC(=O)c1ccc(C#Cc2ccc3c(c2)C(C)(C)CCS3)nc1 [TAZAROTENE] |  |  |  | > 10 |  | 
CCOC(=O)[C@@H](N)Cc1ccc(-c2cc(O[C@H](c3ccc(Cl)cc3-n3ccc(C)n3)C(F)(F)F)nc(N)n2)cc1 [TELOTRISTAT ETHYL] |  |  |  |  |  | AC50 [3]: > 30 µM
CCCCCCCC(=O)CC[C@@H]1[C@@H](C/C=C\CCCC(=O)OC(C)C)[C@@H](O)C[C@H]1O [UNOPROSTONE ISOPROPYL] |  |  |  |  |  | AC50 [4]: > 50 µM
